The values that follow come from publication PMC9338942, “(+)-Usnic acid and its salts, inhibitors of SARS‐CoV‐2, identified by using in silico methods and in vitro assay” (Scientific Reports, 2022).

Series [1] can be described thus: in vitro. To be noted: African green monkey.
Series [2] has as its system SARS-CoV-2 (βCoV/Korea/KCDC/2020). Nature of the series: microbe, parasite or virus in culture. The conditions noted are these: for IC50: vero cells, immunofluorescence; for inhibition at 10 µM: single concentration 10 μM, read-out: Inhibition of infection (%). The series is classed as cell-based.
In series [3] the test system is vero cells. The conditions noted are these: for Cell number to mock (%): single concentration 10 μM; for CC50: vero cells.
Series [4] concerns SARS-CoV-2 pseudovirions. The conditions noted are these: at 30 μM; cited from earlier work.
The test system of series [5] is SARS-CoV-2. To be noted: read-out: IC50, in vitro antiviral efficacy against SARS-CoV-2; cited from earlier work.
In series [6] the test system is COVID-19. Set-up: method as in PMID 34480861. To be noted: phase 3 clinical trial; cited from earlier work.
In series [7] the test system is SARS-CoV. The conditions noted are these: mice, 30 mg/kg; cited from earlier work.
In series [8] the test system is COVID-19. Further details: method as in PMID 33903855. The conditions noted are these: cited from earlier work.
Setting [9] is: CC50, vero cells, assay with Alpha var (B.1.1.7).
The mark [10] stands for this setting: CC50, vero cells, assay with Beta var (B.1.351).
Where [11] appears, read: CC50, vero cells, assay with Delta var (B.1.617.2).
Where [12] appears, read: CC50, vero cells, assay with original SARS-CoV-2 strain.
The mark [13] stands for this setting: Severe acute respiratory syndrome coronavirus 2, original SARS-CoV-2 strain.
Where [14] appears, read: Severe acute respiratory syndrome coronavirus 2.
The mark [15] stands for this setting: assay with original SARS-CoV-2 strain.
The mark [16] stands for this setting: assay with Delta var (B.1.617.2).

Read-outs that look alike come from different tables or passages of the source.

In general, IC50 refers to the concentration at which inhibition is half-maximal. As a reminder, the inhibition is the drop in the measured response relative to a control, in per cent. `CC(=O)c1c(O)c(C)c(O)c2c1OC1=CC(=O)C(C(C)=O)C(=O)[C@@]12C` (single isomer, unassigned; (+)) [(+)-usnic acid]: the CC50 is 34.8 µM in series [1] (setting [9]), 32.4 µM in series [1] (setting [10]), above 50 µM in series [1] (setting [11]) and above 50 µM in series [1] (setting [12]). In addition, the “SI (selectivity index)” value in series [2] stood at 6.26. The IC50 in series [2] (setting [13]) turned out to be 7.99 µM. In addition, the inhibition at 10 µM in series [2] (setting [14]) is 61.6%. In addition, the “Cell number to mock (%)” value in series [3] turned out to be 94.69%.
Take `CCOC(=O)[C@H]1O[C@@H]1C(=O)N[C@@H](CC(C)C)C(=O)NCCC(C)C` [Aloxistatin]: in series [4], the “reduction of cell entry of SARS-CoV-2 pseudovirions” value is given as 92.5%.
Turning to `Cc1ccc(N)cc1C(=O)N[C@H](C)c1cccc2ccccc12` [GRL0617], the half-inhibitory concentration (IC50) in series [5] was 2.1 µM.
The compound `CC(=O)C1=C(O)[C@]2(C)C(=CC1=O)Oc1c(C(C)=O)c(O)c(C)c(O)c12` [KU, potassium usnate] returned a concentration for half-maximal inhibition (IC50) in series [2] (original SARS-CoV-2 strain) of 7.57 µM. In series [3] (setting [15]), the CC50 is above 50 µM.
As for `COC1=CC(=O)[C@@]2(C)c3c(O)c(C)c(O)c(C(C)=O)c3O[C@@]2(OC)C1` [Mycousfuran A, (4aS,9bR)-6-acetyl-7,9-dihydroxy-3,4a-dimethoxy-8,9b-dimethyl-4H-dibenzofuran-1-one], the inhibition at 10 µM in series [2] (setting [14]) was 0.96%. In addition, the “Cell number to mock (%)” value in series [3] worked out at 109.23%.
With `CC(=O)C1=C(O)C=C2Oc3c(C(C)=O)c(O)c(C)c(O)c3[C@]2(C)C1=O` [NaU, sodium usnate], it took 5.33 µM to reach half-maximal inhibition in series [2] (original SARS-CoV-2 strain) (IC50). Moreover, the CC50 in series [3] (setting [15]) is above 50 µM.
For the compound `C[C@]12C[C@@]34C=CC(=O)[C@@](C)(CCC(=O)Nc5c(O)ccc(C(=O)O)c5O)[C@@H]3[C@H](C[C@@H]1C4)O2` [Platensimycin, 3-[[3-[(1S,3S,4S,5aS,9S,9aR)-1,4,5,8,9,9a-Hexahydro-3,9-dimethyl-8-oxo-3H-1,4:3,5a-dimethano-2-benzoxepin-9-yl]-1-oxopropyl]amino]-2,4-dihydroxybenzoic acid], the inhibition at 10 µM in series [2] (setting [14]) worked out at 3.16%. For the same compound, the “Cell number to mock (%)” value in series [3] turned out to be 109.23%.
The matching figures for `CO[C@H]1[C@H](O)[C@@H](O)[C@H](n2c3c(Cl)cccc3c3c4c(c5c6cccc(Cl)c6[nH]c5c32)C(=O)NC4=O)O[C@@H]1CO` [Rebeccamycin, 1,11-Dichloro-12,13-dihydro-12-(4-O-methyl-β-D-glucopyranosyl)-5H-indolo[2,3-a]pyrrolo[3,4-c]carbazole-5,7(6H)-dione]: 10.6% and 72.32%.
For `CCS(=O)(=O)N1CC(CC#N)(n2cc(-c3ncnc4[nH]ccc34)cn2)C1` [barcitinib, Barcitinib], the “reduction of 28-day mortality rate compared to placebo” value in series [6] is recorded as 38.2%.
Regarding `CN(C)C(=O)COC(=O)Cc1ccc(OC(=O)c2ccc(NC(=N)N)cc2)cc1` [camostat mesilate], the survival level entry in series [7] was “above 60%”. In series [8], the “efficacy in clinical trials for the treatment of COVID-19” value is reported as “did not show any particular efficacy”.
As for `CCN(CC)CCCC(C)Nc1ccnc2cc(Cl)ccc12` (centres unmarked) [chloroquine], the CC50 in series [1], in series [3] (assay with Beta var (B.1.351)) and in series [3] (setting [16]) was above 150 µM throughout. Besides, in series [2] (setting [13]), the IC50 worked out at 11.5 µM.
With `Cc1cccc(C)c1OCC(=O)N[C@@H](Cc1ccccc1)[C@@H](O)C[C@H](Cc1ccccc1)NC(=O)[C@H](C(C)C)N1CCCNC1=O` [lopinavir], the CC50 was above 50 µM in series [1] (setting [9]), above 50 µM in series [1] (setting [10]), above 50 µM in series [1] (setting [11]) and above 150 µM in series [1] (setting [12]). Further, the “SI (selectivity index)” value in series [2] turned out to be 4.24. In series [2] (setting [13]), this compound displayed a half-maximal inhibitory concentration (IC50) of 11.8 µM.
Turning to `CCC(CC)COC(=O)[C@H](C)N[P@](=O)(OC[C@H]1O[C@@](C#N)(c2ccc3c(N)ncnn23)[C@H](O)[C@@H]1O)Oc1ccccc1` [remdesivir], the CC50 in series [1], in series [3] (assay with Beta var (B.1.351)) and in series [3] (setting [16]) was above 50 µM in each case. Further, the IC50 in series [2] (setting [13]) came to 7.42 µM. Moreover, the “SI (selectivity index)” value in series [2] (original SARS-CoV-2 strain) was 6.74.
